Where “and” joins values, the source holds several entries; their conditions need not be identical. Equal values may be shown once. Toxic doses and inconclusive results are not listed.
System: L1210 leukemia ip in BDF1 mice, survival T/C
Experiment: NCI In Vivo Anticancer Drug Screen. Data for tumor model L1210 Leukemia (intraperitoneal) in B6D2F1 (BDF1) mice
Conditions: endpoint: mean survival time, higher = longer survival
In short: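 Tumor cells were implanted, animals were treated, and survival was followed. The result divides the treated measurement by the vehicle-control measurement.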

[1] = dose: 100.0 mg/kg/injection, schedule: Q01DX009 (ip), vehicle: saline with Tween-80
[2] = dose: 100.0 mg/kg/injection, schedule: Q04DX003 (ip), vehicle: saline with Tween-80
[3] = dose: 200.0 mg/kg/injection, schedule: Q01DX009 (ip), vehicle: saline with Tween-80
[4] = dose: 200.0 mg/kg/injection, schedule: Q04DX003 (ip), vehicle: saline with Tween-80
[5] = dose: 400.0 mg/kg/injection, schedule: Q01DX009 (ip), vehicle: saline with Tween-80
[6] = dose: 1.56 mg/kg/injection, schedule: Q04DX003 (ip), vehicle: saline
[7] = dose: 100.0 mg/kg/injection, schedule: Q04DX002 (ip), vehicle: saline
[8] = dose: 200.0 mg/kg/injection, schedule: Q04DX002 (ip), vehicle: saline
[9] = dose: 100.0 mg/kg/injection, schedule: Q04DX003 (ip), vehicle: Klucel (hydroxypropylcellulose) (HPC)
[10] = dose: 200.0 mg/kg/injection, schedule: Q04DX003 (ip), vehicle: Klucel (hydroxypropylcellulose) (HPC)
[11] = dose: 400.0 mg/kg/injection, schedule: Q04DX003 (ip), vehicle: Klucel (hydroxypropylcellulose) (HPC)
[12] = dose: 200.0 mg/kg/injection, schedule: Q04DX003 (ip), vehicle: saline
[13] = dose: 100.0 mg/kg/injection, schedule: Q01DX009 (ip), vehicle: Klucel (hydroxypropylcellulose) (HPC)
[14] = dose: 200.0 mg/kg/injection, schedule: Q01DX009 (ip), vehicle: Klucel (hydroxypropylcellulose) (HPC)
[15] = dose: 400.0 mg/kg/injection, schedule: Q01DX009 (ip), vehicle: Klucel (hydroxypropylcellulose) (HPC)
[16] = dose: 100.0 mg/kg/injection, schedule: Q04DX003 (ip), vehicle: saline
[17] = dose: 400.0 mg/kg/injection, schedule: Q04DX003 (ip), vehicle: saline
[18] = dose: 100.0 mg/kg/injection, schedule: Q01DX001 (ip), vehicle: Klucel (hydroxypropylcellulose) (HPC)
[19] = dose: 200.0 mg/kg/injection, schedule: Q01DX001 (ip), vehicle: Klucel (hydroxypropylcellulose) (HPC)
[20] = dose: 100.0 mg/kg/injection, schedule: Q01DX001 (ip), vehicle: carboxymethylcellulose (CMC)

With `COC(OC)c1[nH]c(=S)[nH]c(=O)c1CCCc1ccccc1` the T/C [1] was 94 % of control, the T/C [2] was 100 % of control and the T/C [3] was 105 % of control. For the same compound, the T/C [4] was 100 % of control, the T/C [5] was 86 % of control and the T/C (dose: 400.0 mg/kg/injection, schedule: Q04DX003 (ip), vehicle: saline with Tween-80) was 96 % of control.

With `CC(C)(C)NC(=O)NCc1cccc2ccccc12` the T/C (dose: 100.0 mg/kg/injection, schedule: Q01DX009 (ip), vehicle: other) was 103 % of control, the T/C (dose: 200.0 mg/kg/injection, schedule: Q01DX009 (ip), vehicle: other) was 95 % of control and the T/C (dose: 400.0 mg/kg/injection, schedule: Q01DX009 (ip), vehicle: other) was 90 % of control.

In the case of `CC(=O)[O][Sn]([c]1ccccc1)([c]1ccccc1)[c]1ccccc1`, the T/C (dose: 0.39 mg/kg/injection, schedule: Q01DX009 (ip), vehicle: saline with Tween-80) is reported as 98 % of control, the T/C (dose: 0.78 mg/kg/injection, schedule: Q01DX009 (ip), vehicle: saline with Tween-80) is reported as 93 % of control and the T/C (dose: 1.0 mg/kg/injection, schedule: Q01DX015 (ip), vehicle: saline) is reported as 97 % of control. For the same compound, the T/C (dose: 1.56 mg/kg/injection, schedule: Q01DX009 (ip), vehicle: saline with Tween-80) was 106 % of control, the T/C [6] was 106 % of control and the T/C (dose: 2.0 mg/kg/injection, schedule: Q01DX015 (ip), vehicle: saline) was 89 % of control. The T/C (dose: 2.33 mg/kg/injection, schedule: Q01DX009 (ip), vehicle: saline with Tween-80) was 105 % of control and the T/C (dose: 3.54 mg/kg/injection, schedule: Q01DX009 (ip), vehicle: saline with Tween-80) was 100 % of control.

`CCNC(=S)C(=S)NCC` was tested, and the T/C (dose: 3.0 mg/kg/injection, schedule: Q01DX009 (ip), vehicle: Klucel (hydroxypropylcellulose) (HPC)) was 92 % of control, the T/C (dose: 3.12 mg/kg/injection, schedule: Q04DX003 (ip), vehicle: Klucel (hydroxypropylcellulose) (HPC)) was 100 % of control and the T/C (dose: 6.0 mg/kg/injection, schedule: Q01DX009 (ip), vehicle: Klucel (hydroxypropylcellulose) (HPC)) was 97 % of control. For the same compound, the T/C (dose: 6.25 mg/kg/injection, schedule: Q04DX003 (ip), vehicle: Klucel (hydroxypropylcellulose) (HPC)) was 104 % of control and the T/C (dose: 12.5 mg/kg/injection, schedule: Q04DX003 (ip), vehicle: Klucel (hydroxypropylcellulose) (HPC)) was 98 % of control and 106 % of control.

In the case of `C/C=C/C=C\COC(=O)C1CC1`, the T/C [7] is reported as 116 % of control and the T/C [8] is reported as 121 % of control.

`COC(=O)c1cc(Cl)c(C(=O)OC)cc1Cl` was tested, and the T/C [9] was 90 % of control, the T/C [10] was 98 % of control and the T/C [11] was 102 % of control.

With `COc1cc2c(c(OC)c1O)-c1ccc(OC)c(=O)cc1[C@@H](NC(C)=O)CC2` the T/C (dose: 25.0 mg/kg/injection, schedule: Q01DX009 (ip), vehicle: saline) was 159 % of control, the T/C (dose: 50.0 mg/kg/injection, schedule: Q01DX009 (ip), vehicle: saline) was 106 % of control and 108 % of control and the T/C (dose: 50.0 mg/kg/injection, schedule: Q04DX002 (ip), vehicle: saline) was 111 % of control. For the same compound, the T/C [8] was 122 % of control and the T/C [12] was 95 % of control.

`CC(=[N-])CC(C)=O.CC(=[N-])CC(C)=O.[Co+2]` was tested, and the T/C (dose: 12.5 mg/kg/injection, schedule: Q01DX001 (ip), vehicle: saline) was 86 % of control and the T/C (dose: 25.0 mg/kg/injection, schedule: Q01DX001 (ip), vehicle: saline) was 98 % of control.

For `O=P(Nc1ccc(Cl)c(Cl)c1)(N1CCCCC1)N1CCCCC1`, the T/C [9] was 93 % of control, the T/C [10] was 91 % of control and the T/C [11] was 93 % of control.

`O=C(Nc1ccccc1C(F)(F)F)N(Cc1ccccc1)Cc1ccccc1` was tested, and the T/C [13] was 101 % of control, the T/C [14] was 87 % of control and the T/C [15] was 95 % of control.

With `O=C(O)c1ccc(OCC(=O)c2ccccc2)cc1` the T/C [1] was 98 % of control and the T/C [3] was 89 % of control.

With `CC(/C=C(\C)N1CCCC1)=[N+]1CCCC1` the T/C (dose: 0.78 mg/kg/injection, schedule: Q01DX009 (ip), vehicle: saline) was 101 % of control, the T/C (dose: 1.56 mg/kg/injection, schedule: Q01DX009 (ip), vehicle: saline) was 101 % of control and the T/C [6] was 94 % of control and 108 % of control. For the same compound, the T/C (dose: 3.12 mg/kg/injection, schedule: Q04DX003 (ip), vehicle: saline) was 112 % of control and 89 % of control and the T/C (dose: 6.25 mg/kg/injection, schedule: Q04DX003 (ip), vehicle: saline) was 110 % of control.

With `COc1ccc(C(=O)N(N)C2CCCCC2)cc1` the T/C [2] was 93 % of control and the T/C [4] was 102 % of control.

`CCNCC(=O)O` was tested, and the T/C [7] was 96 % of control, the T/C [8] was 101 % of control and the T/C (dose: 400.0 mg/kg/injection, schedule: Q04DX002 (ip), vehicle: saline) was 104 % of control.

With `CC(C)=CCc1c2c(c3occ(-c4ccc(O)cc4)c(=O)c3c1O)C=CC(C)(C)O2` the T/C [9] was 88 % of control and the T/C [11] was 88 % of control.

For `Nc1nnc2c(n1)[nH]c1ccccc12`, the T/C (dose: 50.0 mg/kg/injection, schedule: Q01DX001 (ip), vehicle: saline) was 96 % of control, the T/C (dose: 100.0 mg/kg/injection, schedule: Q01DX001 (ip), vehicle: saline) was 100 % of control and the T/C (dose: 200.0 mg/kg/injection, schedule: Q01DX001 (ip), vehicle: saline) was 93 % of control.

In the case of `C=C(c1ccccc1)C(C)C(=O)OCC` (stereo not given), the T/C [1] is reported as 96 % of control, the T/C [3] is reported as 101 % of control and the T/C [5] is reported as 98 % of control.

`COB(CCCCB(OC)OC)OC` was tested, and the T/C (dose: 100.0 mg/kg/injection, schedule: Q01DX009 (ip), vehicle: saline sonified) was 96 % of control, the T/C [16] was 100 % of control and the T/C (dose: 200.0 mg/kg/injection, schedule: Q01DX009 (ip), vehicle: saline sonified) was 92 % of control. For the same compound, the T/C [12] was 107 % of control, the T/C (dose: 400.0 mg/kg/injection, schedule: Q01DX009 (ip), vehicle: saline sonified) was 87 % of control and the T/C [17] was 94 % of control.

With `COc1ccc(/C=C(/C)[N+](=O)[O-])cc1` the T/C (dose: 50.0 mg/kg/injection, schedule: Q01DX001 (ip), vehicle: Klucel (hydroxypropylcellulose) (HPC)) was 104 % of control, the T/C [18] was 97 % of control and the T/C [19] was 95 % of control and 90 % of control. For the same compound, the T/C (dose: 300.0 mg/kg/injection, schedule: Q01DX001 (ip), vehicle: Klucel (hydroxypropylcellulose) (HPC)) was 100 % of control.

`O=C1NC(=O)C(Nc2ccccc2)(c2ccccc2)N1` (stereo not given) was tested, and the T/C [18] was 90 % of control and the T/C [19] was 95 % of control.

For `NNc1nnc(Cl)cc1N`, the T/C (dose: 25.0 mg/kg/injection, schedule: Q04DX003 (ip), vehicle: saline with Tween-80) was 102 % of control, the T/C (dose: 50.0 mg/kg/injection, schedule: Q04DX003 (ip), vehicle: saline with Tween-80) was 104 % of control and the T/C [2] was 113 % of control.

With `O=C(O)CC(c1ccccc1)c1ccccc1` the T/C [13] was 98 % of control, the T/C [9] was 94 % of control and the T/C [14] was 97 % of control. The T/C [10] was 107 % of control, the T/C [15] was 109 % of control and the T/C [11] was 107 % of control.

In the case of `O=C1c2cc([N+](=O)[O-])ccc2-c2cc(Br)c(N=C(NO)C(F)(F)F)cc21`, the T/C [20] is reported as 103 % of control, the T/C (dose: 200.0 mg/kg/injection, schedule: Q01DX001 (ip), vehicle: carboxymethylcellulose (CMC)) is reported as 98 % of control and the T/C (dose: 400.0 mg/kg/injection, schedule: Q01DX001 (ip), vehicle: carboxymethylcellulose (CMC)) is reported as 95 % of control.

In the case of `CC(=O)OCC1OC(n2c(Br)nc3c(N)ncnc32)C2OC(C)(C)OC12` (stereo not given), the T/C (dose: 25.0 mg/kg/injection, schedule: Q01DX001 (ip), vehicle: carboxymethylcellulose (CMC)) is reported as 95 % of control, the T/C (dose: 50.0 mg/kg/injection, schedule: Q01DX001 (ip), vehicle: carboxymethylcellulose (CMC)) is reported as 100 % of control and the T/C [20] is reported as 93 % of control.

With `CCOC(=O)C1CCC(=O)NC1=O` (stereo not given) the T/C (dose: 100.0 mg/kg/injection, schedule: Q01DX009 (ip), vehicle: saline) was 111 % of control, the T/C [16] was 98 % of control and the T/C (dose: 200.0 mg/kg/injection, schedule: Q01DX009 (ip), vehicle: saline) was 108 % of control. The T/C [12] was 102 % of control, the T/C (dose: 400.0 mg/kg/injection, schedule: Q01DX009 (ip), vehicle: saline) was 101 % of control and the T/C [17] was 104 % of control.

In the case of `COc1cccc(OC)c1OC(=O)Nc1cccc(SC)c1`, the T/C [3] is reported as 91 % of control and the T/C [5] is reported as 95 % of control.
